Results as given in patent US7087635B2, “3-substituted oxindole β3 agonists” (Eli Lilly and Company, priority 2001, dated 2006).

target: T1, human β3 adrenergic receptor (Homo sapiens, UniProt P13945); experiment: whole cell receptor coupled c-AMP assay (Emax relative to isoproterenol); type: cell-based; settings: % intrinsic activity relative to isoproterenol maximal response; transfected CHO cells
T1 construct: expressed in transfected cells; host or cells: DXB-11 Chinese hamster ovary (CHO) cell line, stably transfected, phd expression vector
T1 sequence (P13945 whole entry): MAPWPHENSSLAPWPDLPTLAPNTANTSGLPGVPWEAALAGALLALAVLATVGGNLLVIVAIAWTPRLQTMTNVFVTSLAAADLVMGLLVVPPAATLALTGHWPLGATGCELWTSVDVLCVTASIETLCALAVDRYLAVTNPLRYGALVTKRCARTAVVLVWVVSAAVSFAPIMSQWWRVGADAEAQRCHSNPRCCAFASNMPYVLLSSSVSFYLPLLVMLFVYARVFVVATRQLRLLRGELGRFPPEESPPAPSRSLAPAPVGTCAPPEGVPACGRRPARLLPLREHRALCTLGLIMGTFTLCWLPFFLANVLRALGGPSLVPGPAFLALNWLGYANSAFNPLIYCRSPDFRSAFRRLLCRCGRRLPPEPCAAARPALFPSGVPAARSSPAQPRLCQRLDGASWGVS
From the text: The genes encoding the human β1-adrenergic receptor (Frielle et al., Proc. Natl. Acad. Sci., 84:7920–7924, 1987), the human β2-adrenergic receptor (Kobika el al., Proc. Natl. Acad. Sci., 84:46–50, 1987, Emorine et al., Proc. Natl. Acad. Sci., 84:6995–6999, 1987) and the human β3 adrenergic receptor (Granneman et al., Molecular Pharmacology, 44(2):264–70, 1993) are individually subcloned into a phd expression vector (Grinnell et al., Bio/Technology, 5:1189–1192, 1987) and transfected into the DXB-11 Chinese hamster ovary (CHO) cell line by calcium phosphate precipitation methodology. The stably transfected cells are grown to 95% confluency in 95% Dulbecco's modified Eagles Medium (DMEM), 5% fetal bovine serum and 0.01% proline. Media is removed and the cells are washed with phosphate buffered (pH 7.4) saline (without magnesium and calcium). Cells are then lifted using an enzyme free cell dissociation solution (Specialty Media, Lavallette, N.J.) and pelleted by centrifugation.
Cells from each of the above cell lines are resuspended and added (20,000/well) to a 96-well plate. Cells are incubated at 37° C. with representative compounds of the invention for 20 minutes in buffer (Hank's balanced salt solution, 10 mM HEPES, 0.1% BSA, 1 mM L-ascorbic acid, 0.2% dimethyl sulfoxide, 1 mM 3-isobutyl-1-methylxanthine, pH 7.4). After halting the incubation with quench buffer (50 mM Na Acetate, 0.25% Triton X-100, pH 5.8), the c-AMP level is quantified by scintillation proximity assay (SPA) using a modification of the commercially available c-AMP kit (Amersham, Arlington Heights, Ill.) with rabbit anti-cAMP antibody (ICN Biomedicals, Aurora, Ohio) for the kit.
Sigmoidal dose response curves, from the whole cell receptor coupled c-AMP assay are fit to a four parameter logistic equation using non linear regression: y=(a–d)/(1+(Dose/c)^b)+d where a and d are responses at zero and maximal dose, b is the slope factor and c is the EC50 as previously described (DeLean et al., Am. J. Physiol., 235, E97–E102, 1978). EC50 is assessed as the concentration producing 50% of the maximum response to each agonist.
Isoproterenol is accepted in the art as a non-selective β3 agonist and is widely used as a comparator in evaluating the activity of compounds. See Trends in Pharm. Sci., 15:3, 1994. The % intrinsic activity (Emax) of representative compounds of the invention is assessed relative to isoproterenol by the compound's maximal response divided by the isoproterenol maximal response times 100.

Q: How did the Emax turn out when `CC(C)(Cc1c[nH]c2c(OCC3=NCCS3)cccc12)NC[C@H](O)COc1cccc2c1C1(CCCC1)C(=O)N2` [Example 66] was run?
A: Its Emax is 84.9%.

Q: For `C[C@H](Cn1ccc2c(OCC(=O)O)cccc21)NC[C@H](O)COc1cccc2c1C1(CCCC1)C(=O)N2` [Example 68], which Emax is on record?
A: The Emax was 73.3%.

Q: Which Emax does the source give for `CC(C)(Cc1c[nH]c2cccc(C(=O)O)c12)NC[C@H](O)COc1cccc2c1C1(CCCC1)C(=O)N2` [Example 69] here?
A: Its Emax is 37.9%.

Q: `CC(C)(Cc1c[nH]c2ccc(C(=O)O)cc12)NC[C@H](O)COc1cccc2c1C1(CCCC1)C(=O)N2` [Example 70] was tested. Which Emax did it give?
A: Its Emax is 53.5%.

Q: How did the Emax turn out when `CC(C)(Cc1c[nH]c2c(C(=O)O)cccc12)NC[C@H](O)COc1cccc2c1C1(CCCC1)C(=O)N2` [Example 71] was run?
A: The Emax was 59.5%.

Q: With `CC(C)(Cc1c[nH]c2cc(C(=O)O)ccc12)NC[C@H](O)COc1cccc2c1C1(CCCC1)C(=O)N2` [Example 72] as the compound, how does the Emax read?
A: Its Emax is 56.2%.

Q: With `CC(C)(Cc1c[nH]c2c(Oc3ccc(C(=O)O)cn3)cccc12)NC[C@H](O)COc1cccc2c1C1(CCCC1)C(=O)N2` [Example 73] as the compound, how does the Emax read?
A: Its Emax is 82.4%.

Q: Which Emax does the source give for `CC(C)(Cc1c[nH]c2c(Oc3ccc(-c4nn[nH]n4)cn3)cccc12)NC[C@H](O)COc1cccc2c1C1(CCCC1)C(=O)N2` [Example 74] here?
A: Its Emax is 78.1%.

Q: `CC(C)(Cc1c[nH]c2c(Oc3ccc(C(N)=O)cn3)cccc12)NC[C@H](O)COc1cccc2c1C1(CCCC1)C(=O)N2` [Example 75] was tested. Which Emax did it give?
A: Its Emax is 80.1%.

Q: For `CC(C)(Cc1c[nH]c2c(Oc3ncccc3-c3nn[nH]n3)cccc12)NC[C@H](O)COc1cccc2c1C1(CCCC1)C(=O)N2` [Example 76], which Emax is on record?
A: The Emax was 80.1%.

Q: How did the Emax turn out when `CC(C)(Cc1c[nH]c2c(-c3cccc(C(=O)O)c3)cccc12)NC[C@H](O)COc1cccc2c1C1(CCCC1)C(=O)N2` [Example 78] was run?
A: The Emax was 93.5%.

Q: How did the Emax turn out when `CC(C)(Cc1c[nH]c2c(-c3ccc(C(=O)O)s3)cccc12)NC[C@H](O)COc1cccc2c1C1(CCCC1)C(=O)N2` [Example 79] was run?
A: The Emax was 75.1%.

Q: `CC(C)(Cc1c[nH]c2c(CCC(=O)O)cccc12)NC[C@H](O)COc1cccc2c1C1(CCCC1)C(=O)N2` [Example 80] was tested. Which Emax did it give?
A: Its Emax is 77.2%.

Q: Which Emax does the source give for `CC(C)(Cc1c[nH]c2c(CCc3nnn[nH]3)cccc12)NC[C@H](O)COc1cccc2c1C1(CCCC1)C(=O)N2` [Example 81] here?
A: The Emax was 77.4%.

Q: `CC(C)(Cc1c[nH]c2cc(CCc3nnn[nH]3)ccc12)NC[C@H](O)COc1cccc2c1C1(CCCC1)C(=O)N2` [Example 82] was tested. Which Emax did it give?
A: The Emax was 72.7%.

Q: For `CC(C)(Cc1c[nH]c2c(CCc3cnccn3)cccc12)NC[C@H](O)COc1cccc2c1C1(CCCC1)C(=O)N2` [Example 83], which Emax is on record?
A: Its Emax is 79.3%.

Q: Which Emax does the source give for `CC(C)(Cc1c[nH]c2c(CCc3ccc(S(N)(=O)=O)cc3)cccc12)NC[C@H](O)COc1cccc2c1C1(CCCC1)C(=O)N2` [Example 84] here?
A: The Emax was 78.5%.

Q: With `CC(C)(Cc1c[nH]c2cccc(C(N)=O)c12)NC[C@H](O)COc1cccc2c1C1(CCCC1)C(=O)N2` [Example 85] as the compound, how does the Emax read?
A: The Emax was 48.3%.
